Reference: CN108992440A, “去甲斑蝥素在制备治疗破骨细胞过度激活相关疾病药物中的应用” (priority 2018, dated 2018)

Columns and labels:
Format in all cases: cell-based, mouse
[1] = MTT assay of the effect of NCTD on viability of bone-marrow-derived macrophages; conditions: mouse, bone marrow macrophages; MTT, BMMs, 48 h; read-out: concentration from which BMM activity begins to be affected
[2] = tested on: BMM cells [BMMs]; test: as above
[3] = tested on: TRAP; test: Q-PCR of osteoclast marker gene: TRAP; conditions: RANKL 100 ng/ml, M-CSF 30 ng/ml, 5 days
[4] = tested on: osteoclasts [破骨细胞]; test: TRAP staining: stage of osteoclast formation inhibited by NCTD; conditions: 5 μM NCTD
[5] = tested on: extracellular signal-regulated kinase (ERK) [细胞外信号调节激酶(ERK)]; test: Western blot: RANKL-stimulated ERK phosphorylation; conditions: BMMs, RANKL 15 min; 0, 2.5, 5, 10 μM NCTD
[6] = tested on: c-Fos; test: Q-PCR of osteoclast marker gene: c-Fos; conditions: RANKL 100 ng/ml, M-CSF 30 ng/ml, 5 days
[7] = tested on: NFATc1; test: Q-PCR of osteoclast marker gene: NFATc1; conditions: RANKL 100 ng/ml, M-CSF 30 ng/ml, 5 days
[8] = tested on: CTR; test: Q-PCR of osteoclast marker gene: CTR; conditions: RANKL 100 ng/ml, M-CSF 30 ng/ml, 5 days
[9] = tested on: BMM cells [BMMs]; test: Annexin V-FITC/PI flow cytometry: apoptosis of BMMs; conditions: BMMs, 0, 2.5, 5, 10 μM NCTD, 48 h
[10] = tested on: c-Jun N-terminal kinase (JNK) [c-Jun氨基端激酶(JNK)]; test: Western blot: JNK (MAPK family); conditions: BMMs
[11] = tested on: CTSK; test: Q-PCR of osteoclast marker gene: CTSK; conditions: RANKL 100 ng/ml, M-CSF 30 ng/ml, 5 days
[12] = tested on: IκBα; test: IκBα degradation (NF-κB signalling pathway)
[13] = tested on: osteoclasts [破骨细胞]; test: TRAP staining: RANKL-induced osteoclast differentiation from BMMs; conditions: RANKL induction 5 days, 0, 1, 2.5, 5, 10 μM NCTD
[14] = tested on: p38 kinase [p38激酶]; test: Western blot: RANKL-stimulated p38 phosphorylation; conditions: BMMs, RANKL 15 min; 0, 2.5, 5, 10 μM NCTD
[15] = pretreatment (12 h before RANKL)

With O=C1OC(=O)C2C3CCC(O3)C12 (stereo not shown) [NCTD, 去甲斑蝥素] the MCC at 48 h [1] was 20 µM, the IC50 ([2]; Mus musculus, Macrophage, MTT, BMMs, 48 h, 0-320 μM NCTD, GraphPad Prism, read-out: half-inhibitory concentration (IC50) on BMMs) was 59.7 µM and the “toxicity to BMM cells” value ([2]; at 10 μM and below) was “无毒性作用”. The TRAP expression [3] was “浓度依赖地抑制”, the “osteoclast number and area” value ([4]; early treatment (first 2 days of induction)) was “能够显著改变破骨细胞数量和面积” and the osteoclast area ([4]; late treatment (last 3 days of induction)) was “对破骨细胞面积没有明显影响”. The osteoclast formation [4, 15] was “在一定程度上可抑制破骨细胞形成”, the “osteoclast number and size vs control” value [4, 15] was “均有明显差异” and the “inhibition of osteoclast differentiation” value ([4]; pretreatment + whole-course treatment) was “对破骨细胞分化抑制最为明显”. The “inhibition of osteoclast differentiation” value ([4]; whole-course treatment (5 days)) was “对破骨细胞分化抑制最为明显”, the ERK phosphorylation [5] was “明显受到抑制” and the c-Fos expression [6] was “浓度依赖地抑制”. The NFATc1 expression [7] was “浓度依赖地抑制”, the CTR expression [8] was “浓度依赖地抑制” and the apoptosis [9] was “不会引起细胞凋亡”. For the same compound, the “inhibition of JNK” value ([10]; RANKL 15 min, 0, 2.5, 5, 10 μM NCTD) was “没有明显抑制作用”, the JNK phosphorylation ([10]; RANKL-stimulated) was “没有影响” and the CTSK expression [11] was “浓度依赖地抑制”. The IκBα degradation ([12]; BMMs, RANKL-stimulated) was “没有抑制IκBα的降解”, the “RANKL-activated NF-κB signalling pathway” value ([12]; by IκBα degradation) was “没有明显影响” and the “osteoclast formation (osteoclast number and area)” value [13] was “能够明显抑制破骨细胞的生成,且呈剂量依赖性关系”. The p38 phosphorylation [14] was “明显受到抑制”.
